Assay results from PMC6407204, “Oral administration of the cannabigerol derivative VCE-003.2 promotes subventricular zone neurogenesis and protects against mutant huntingtin-induced neurodegeneration” (Translational Neurodegeneration, 2019).
“Also recorded” adds a separate entry of the source.

Legend:
[1] = system: S. typhimurium TA98 and S. typhimurium TA100; assay: AMES reverse mutation assay, overall statement; type: cell-based; details: absence and presence of S9 metabolic activation
Protocol: Supplementary file 40035_2019_148_MOESM4_ESM.pdf: Additional file 4: AMES Data Summary. AMES Experimental Procedure. Approximately ten million bacteria are exposed in triplicate to VCE-003-.2 (7.8, 15.6, 31.3, 62.5, 125 and 250 μg/ml), a negative control (vehicle) and a positive control for 90 min in medium containing a low concentration of histidine (sufficient for about 2 doublings). The cultures were then diluted into indicator medium lacking histidine and dispensed into 48 wells of a 384 well plate (micro-plate format, MPF). The plate was incubated for 48 h at 37 °C, and the number of wells showing growth were counted and compared to the vehicle control. An increase in the number of colonies of at least two-fold over baseline (mean + SD of the vehicle control) and a dose response indicates a positive response. […] Where indicated, S9 fraction from the livers of Aroclor 1254-treated rats was included in the incubation at a final concentration of 4.5%. An NADPH-regenerating system is also included to ensure a steady supply of reducing equivalents. The strains used in this study were S. typhimurium TA98 (hisD3052, rfa, uvrB/pKM10 for detection of frame-shift mutations) and S. typhimurium TA100 ([…], rfa, uvrB/pKM101 for detection of base-pair substitutions). VCE-003.2 was assessed for its mutagenic potential in the AMES reverse mutation assay. […]

P19 cells = assay: P19 neurosphere formation assay; type: cell-based, mouse; details: P19 cells cultured 24 h
Protocol: All reagents, unless indicated, were from Sigma-Aldrich (St. Louis, MO, USA). The synthesis and structure of VCE-003.2 were previously described. Mouse embryonic teratocarcinoma P19 were cultured in high-glucose DMEM (Invitrogen) supplemented with 10% fetal bovine serum and 1% penicillin/streptomycin. P19 cells were plated in 24-well plates and transfected with Lipofectamine 2000 reagent according to the manufacture’s protocol (Invitrogen). Twenty-four hours post transfection, cells were collected for RNA extraction or luciferase assay determinations. […] Twenty-four hours later the mean neurosphere size was quantified. […]
Fig. 2 VCE-003.2 exerts a pro-neurogenic effect in vitro. a-b Mouse embryonic stem cells (R1 line) were treated with Vehicle, VCE-003.2 (500 nM) during neural differentiation for 21 days. Representative immunofluorescence images and quantification of CTIP2- and doublecortin-positive cells is shown (n = 3). c Luciferase reporter assay of the A4-MARS sequence of the CTIP2 locus was performed 24 h after P19 cell transfection under neuronal differentiation conditions and subject to pharmacological regulation as above. d P19 neurosphere formation assay was performed by culturing the cells for 24 h in the presence of Vehicle or VCE-003.2. […]

[2] = system: 3-NP model of striatal neurodegeneration; assay: 3-Nitropropionic acid (3-NP) model of striatal neurodegeneration; type: in vivo, C57BL/6 N male mice; details: 10 mg/kg oral gavage every 24 h, sesame oil
Protocol: Supplementary file 40035_2019_148_MOESM6_ESM.pdf: Additional file 6: 3-Nitroproprionic acid model of striatal neurodegeneration. 16-week- old C57BL/6 N male mice (Harlan Ibérica, Barcelona, Spain) were subjected to seven intraperitoneal (i.p.) injections of 50 mg/kg 3-NP (one injection each every 12 h prepared in phosphate-buffered saline (PBS)]. 3-NP-treated animals and their respective non-lesioned controls (injected with PBS) were used for pharmacological studies with VCE-003.2. Treatments consisted of oral gavage every 24 h with VCE-003.2 at a dose of 10 mg/kg using sesame oil as vehicle. 12 h after the last injection of 3-NP motor activity, hindlimb clasping and kyphosis were evaluated as previously described. Animals were euthanized at the indicated time after huntingtin-AAV infection or 12 h after the last injection of 3NP and their brains removed. Statistical analysis: One-way ANOVA followed by the Tuckey’s post hoc test was used to determine the statistical significance. All the in vivo data were expressed as mean ± SEM. […]

[3] = system: CTIP2 transcriptional activity; assay: CTIP2 luciferase transcriptional reporter assay (A4-MARS) in P19 cells; type: cell-based, mouse; details: 24 h after transfection, neuronal differentiation conditions, vs vehicle
Protocol: All reagents, unless indicated, were from Sigma-Aldrich (St. Louis, MO, USA). The synthesis and structure of VCE-003.2 were previously described. Mouse embryonic teratocarcinoma P19 were cultured in high-glucose DMEM (Invitrogen) supplemented with 10% fetal bovine serum and 1% penicillin/streptomycin. P19 cells were plated in 24-well plates and transfected with Lipofectamine 2000 reagent according to the manufacture’s protocol (Invitrogen). Twenty-four hours post transfection, cells were collected for RNA extraction or luciferase assay determinations. P19 neurosphere formation assay was performed using dissociated P19 cells cultured in high-glucose DMEM (Invitrogen) supplemented with 5% of fetal bovine serum and 0. 5 μM retinoic acid. Twenty-four hours later the mean neurosphere size was quantified. Luciferase construct with the MAR sequence A4 of the Ctip2 promoter was kindly provided (R. Grosschedl, Max-Planck-Institute of Immunobiology and Epigenetics, Freiburg, Germany).
To study CTIP2 transcriptional activity P19 cells were seeded in 24-well plates and transiently co-transfected with the luciferase reporter vector MARS-A4-luc using Roti-Fect (Carl Roth, Karlsruhe, Germany) following the manufacturer’s instructions. […] After stimulation, the luciferase activities were quantified using Dual-Luciferase Assay (Promega, Madison, WI, USA). […]

**Q.** CCCCCC1=C(NCC)C(=O)C(CC=C(C)CCC=C(C)C)=C(O)C1=O [VCE-003.2, 2-(3,7-dimethyl-octa-2,6-dienyl)-6-ethylamino-3-hydroxy-5-pentyl-(1,4) benzoquinone] was tested. Which “genotoxicity in AMES assay (in words)” value [1] did it give?
**A.** not genotoxic; also recorded: negative for genotoxicity

**Q.** What about the mean neurosphere size (P19 cells) of the same compound?
**A.** 367.90 ± 15.20 μm

**Q.** And the “neuroprotection and anti-inflammatory effect in 3-NP model” value [2]?
**A.** neuroprotective and anti-inflammatory

**Q.** What about the “CTIP2 reporter (A4-MARS luciferase) activity” value [3] of the same compound?
**A.** CTIP2 reporter activation
